Laboratory results: patent US10316371B2, “Screening methods for identifying specific Staphylococcus aureus inhibitors” (TRANA DISCOVERY, INC., priority 2011, dated 2019)
≈ marks a conversion by molar mass, not a printed value. Read-outs that look alike come from different tables or passages of the source.

What was measured:
[1] = test system: S. aureus specific Arg ASL (anticodon stem loop) RNA oligomer interaction with programmed ribosomes; experiment: Fluorescence polarization assay of Arg ASL / programmed ribosome complex (HTS and dose response); assay type: binding, S. aureus Arg ASL; E. coli 70S ribosomes; conditions: control compounds
Excerpt: The assay requires the following materials: • Ribosomes—isolated from E. coli or S. aureus • fMet tRNA (Sigma or Chemical Block, Moscow) • mRNA (including the S-D sequence, the “box” sequence, the codon for methionine, and the codon for arginine that is specific for S. aureus, AGA, optionally with additional base pairs to the left of the S-D sequence and/or to the right of the codon for arginine) • Fluorescently labeled Arg ASL oliogomer • Buffer—HAM20,β • 384 well high binding micro titer plates (Matrix Technologies #4319, sold by Fischer Scientific as cat #50823855), or other appropriate plates for use in high throughput screening • Filtration (Sartorius Stedium 100 Kdalton VC 1042) or centrifugation for complex purification • EDTA—negative control (binding antagonist) • Neomycin—A-site binding enhancer (binding agonist)
A ribosome complex was prepared using the above materials and then purified prior to use in the assay. The prepared complex can be stored in concentrated form at −80° C. The complexes were diluted in buffer and dispensed onto plates. […] Fluorescence polarization was measured at approximately 4 hours after dispensing onto the micro-titer plates.
ASL^Arg was first heated for 2 min at 90° C. in water, after addition of 1/10 V of 10× buffer incubation continued on ice for at least 10 min. Prior to complex formation 70S ribosomes and tRNA were reactivated in buffer for 5 min at 45° C. followed by 10 min at 37° C.; mRNA was heated in buffer at 37° C. for 5 min. • (1000 μl×(2 μM E. coli 70S ribosomes+10 μM mRNA-Arg+4 μM tRNA^fmet)/HAM20,β→30 min @ 37° C.,+1000 μl×(0.2 μM neomycin+[…]))→20 min @ 37° C., overnight on ice • Final complex: (2000 pm P+2000 pm ASL)/2 ml=1 μM P+1 μM ASL HAM20,β:
Preparation of Complexes: The purified complex was diluted in ice cold HAM20,β such that the total fluorescence was approximately 2,000,000 units per 5 μL.
20 μl of the diluted complex was added to all 384 well plates (except for blank wells, which received 20 μL of HAM20 only, without complex) using Multidrop dispenser after which the plates were incubated at 25° C. for 4 hours (target 4.5 hours for middle of batch). Plates were then analyzed for fluorescence polarization in Analyst HT fluorescence plate reader and the following instrument settings:
The parallel and perpendicular fluorescence values of experimental wells were automatically corrected for the corresponding values obtained from the blank wells. The fluorescence polarization was calculated as following: P=(I−Ip)/(I+Ip), wherein Ip—is perpendicular fluorescence and I—is parallel fluorescence.
The percent of effect of experimental compounds was calculated as following: %-Inh=(P0−Pc)/(P0−P100)*100, wherein P0—is average polarization in 0%—inhibition control wells, P100—is average polarization in 100%—inhibition control wells, and Pc—is polarization in compound well.
The 3 sigma HTS hits were cherry picked and retested in 6 pt dose response format, using 3× serial dilution and the top nominal concentration of 100 uM.
The compounds were serially diluted in 10% DMSO and plated into 384 well plates (in a volume of 5 μL) to achieve the nominal final concentration raging from 100 μM to 0.4 μM. The plates received 20 μl of the diluted complex following incubation at 25° C. for 4 hours. Plates were then analyzed for fluorescence polarization as described above (see HTS section).
In parallel, the compounds were tested for auto-fluorescence. To this end, the compounds were plated (using the same dilution protocol) into 384 well plates. The plates received 20 μL of the HAM20 assay buffer only (without complex). The plates were incubated for 4 hrs and then were analyzed for fluorescence polarization as described above.

S. aureus ATCC 29213 = experiment: Resistance passaging experiment; assay type: cell-based; conditions: for MIC: Staphylococcus aureus
Description: (§1) Two compounds (#880 and #169) were tested in time-kill assays against S. aureus strain 29213. These compounds were then used to attempt to select for resistant variants by passaging at sub-MIC concentrations for 20 passages.
The selected strain for this experiment was S. aureus ATCC 29213. A frozen glycerol stock was streaked onto MH-II agar and grown overnight at 37° C. The next day, 3-5 colonies were picked and grown in 3 mL of MH-II broth at 37° C. with 200 rpm shaking for approximately 4 hours. A 2-fold microdilution (in round-bottom, 96-well plates) was made for each compound being tested. CLSI guidelines for broth microdilution were followed. Using the bacteria grown from the overnight colonies, each microdilution was inoculated at a final concentration of 5×10^5 colony forming units (CFU)/mL. The microdilutions were incubated at 37° C. for 16 to 20 hours, after which the minimal inhibitory concentration (MIC) of each was read visually. The MIC is defined as the lowest concentration of compound resulting in no visible bacterial growth. This activity is recorded as the MIC at Passage 0. The contents of the well in the next dilution lower in concentration than the MIC (i.e., ½ the MIC) was mixed with a micropipette and 50 μL was transferred to 3 mL of fresh MH-II broth. This was grown at 37° C. with 200 rpm shaking for approximately 4 hours, at which time the sample was turbid. A 1 mL aliquot of this sample was added to a cryovial containing 300 μL of glycerol. This was marked as passage 1, vortexed, than placed in a −80° C. freezer for storage. The rest of the culture was adjusted to a bacterial concentration of 1×10^6cfu/mL (OD600 of 0.004), which was then used to inoculate a microdilution of the same compound (final bacterial concentration of 5×10^5 cfu/mL). This was incubated at 37° C. for 16 to 20 hours. After that time the MIC was once again read and recorded as the MIC at Passage 1. This process was repeated through 20 passages. Ciprofloxacin was included as a control and an untreated sample was also passaged 20 times as a negative control.

S. aureus strain 29213 = experiment: Time-kill experiments; assay type: cell-based; conditions: by 8 hours
Description: as §1
Twenty mL of MH-II media warmed to 37° C. was seeded with log-phase growth S. aureus strain 29213 at 1×10^6 cfu/mL in 50 mL erlenmeyer shake-flasks. Compound was added at 2× and 4× the MIC value. Negative controls (no drug) and positive drug controls (vancomycin at 2× and 4× the MIC) were included in the experiment. Flasks were shaken at 200 rpm and 37° C. Samples were taken at the times indicated (0, 2, 4, 6, 8 and 24 hrs post inoculation) and bacterial loads were quantified by limiting dilution assay.

Molecule: Neomycin [reference compound]
- effect on complex formation (fluorescence polarization versus time, FIG. 11) [1]: stabilizer of complex formation

Molecule: O=C(O)CN(CCN(CC(=O)O)CC(=O)O)CC(=O)O [EDTA, reference compound]
- effect on complex formation (fluorescence polarization versus time, FIG. 11) [1]: inhibitor of complex formation

Molecule: O=C(O)c1cn(C2CC2)c2cc(N3CCNCC3)c(F)cc2c1=O [Ciprofloxacin]
- MIC in S. aureus 29213 (S. aureus ATCC 29213; Passage 0): 0.5 µg/mL (≈ 1.51 µM)
- MIC in S. aureus 29213 (S. aureus ATCC 29213; Passage 20, passaged at sub-MIC): > 256 µg/mL
- MIC (S. aureus ATCC 29213; ATCC29213, read-out: MIC in S. aureus 29213, Passage 0): 0.5 µg/mL (≈ 1.51 µM)
- MIC (S. aureus ATCC 29213; ATCC29213, read-out: MIC in S. aureus 29213, Passage 1, passaged at sub-MIC): 1 µg/mL (≈ 3.02 µM)
- MIC (S. aureus ATCC 29213; ATCC29213, read-out: MIC in S. aureus 29213, Passage 2, passaged at sub-MIC): 2 µg/mL (≈ 6.04 µM)
- MIC (S. aureus ATCC 29213; ATCC29213, read-out: MIC in S. aureus 29213, Passage 3, passaged at sub-MIC): 2 µg/mL (≈ 6.04 µM)
- MIC (S. aureus ATCC 29213; ATCC29213, read-out: MIC in S. aureus 29213, Passage 4, passaged at sub-MIC): 2 µg/mL (≈ 6.04 µM)
- MIC (S. aureus ATCC 29213; ATCC29213, read-out: MIC in S. aureus 29213, Passage 5, passaged at sub-MIC): 2 µg/mL (≈ 6.04 µM)
- MIC (S. aureus ATCC 29213; ATCC29213, read-out: MIC in S. aureus 29213, Passage 6, passaged at sub-MIC): 2 µg/mL (≈ 6.04 µM)
- MIC (S. aureus ATCC 29213; ATCC29213, read-out: MIC in S. aureus 29213, Passage 7, passaged at sub-MIC): 2 µg/mL (≈ 6.04 µM)
- MIC (S. aureus ATCC 29213; ATCC29213, read-out: MIC in S. aureus 29213, Passage 8, passaged at sub-MIC): 4 µg/mL (≈ 12.1 µM)
- MIC (S. aureus ATCC 29213; ATCC29213, read-out: MIC in S. aureus 29213, Passage 9, passaged at sub-MIC): 8 µg/mL (≈ 24.1 µM)
- MIC (S. aureus ATCC 29213; ATCC29213, read-out: MIC in S. aureus 29213, Passage 10, passaged at sub-MIC): 8 µg/mL (≈ 24.1 µM)
- MIC (S. aureus ATCC 29213; ATCC29213, read-out: MIC in S. aureus 29213, Passage 11, passaged at sub-MIC): 16 µg/mL (≈ 48.3 µM)
- MIC (S. aureus ATCC 29213; ATCC29213, read-out: MIC in S. aureus 29213, Passage 12, passaged at sub-MIC): 16 µg/mL (≈ 48.3 µM)
- MIC (S. aureus ATCC 29213; ATCC29213, read-out: MIC in S. aureus 29213, Passage 13, passaged at sub-MIC): 32 µg/mL (≈ 96.6 µM)
- MIC (S. aureus ATCC 29213; ATCC29213, read-out: MIC in S. aureus 29213, Passage 14, passaged at sub-MIC): 32 µg/mL (≈ 96.6 µM)
- MIC (S. aureus ATCC 29213; ATCC29213, read-out: MIC in S. aureus 29213, Passage 15, passaged at sub-MIC): 32 µg/mL (≈ 96.6 µM)
- MIC (S. aureus ATCC 29213; ATCC29213, read-out: MIC in S. aureus 29213, Passage 16, passaged at sub-MIC): 64 µg/mL (≈ 193 µM)
- MIC (S. aureus ATCC 29213; ATCC29213, read-out: MIC in S. aureus 29213, Passage 17, passaged at sub-MIC): 128 µg/mL (≈ 386 µM)
- MIC (S. aureus ATCC 29213; ATCC29213, read-out: MIC in S. aureus 29213, Passage 18, passaged at sub-MIC): 128 µg/mL (≈ 386 µM)
- MIC (S. aureus ATCC 29213; ATCC29213, read-out: MIC in S. aureus 29213, Passage 19, passaged at sub-MIC): 256 µg/mL (≈ 773 µM)
- MIC (S. aureus ATCC 29213; ATCC29213, read-out: MIC in S. aureus 29213, Passage 20, passaged at sub-MIC): > 256 µg/mL
- MIC (S. aureus ATCC 29213; ATCC29213, read-out: MIC in S. aureus 29213, second Passage 10 line of Table 4 (untreated culture passaged 10 times)): 0.5 µg/mL (≈ 1.51 µM)
- MIC (S. aureus ATCC 29213; ATCC29213, read-out: MIC in S. aureus 29213, second Passage 20 line of Table 4 (untreated culture passaged 20 times)): 0.5 µg/mL (≈ 1.51 µM)
- increase of MIC over 20 passages (S. aureus ATCC 29213; passaging at sub-MIC concentration, 20 passages): > 512 fold

Molecule: CN[C@H](CC(C)C)C(=O)N[C@H]1C(=O)N[C@@H](CC(N)=O)C(=O)N[C@H]2C(=O)N[C@H]3C(=O)N[C@H](C(=O)N[C@H](C(=O)O)c4cc(O)cc(O)c4-c4cc3ccc4O)[C@H](O)c3ccc(c(Cl)c3)Oc3cc2cc(c3O[C@@H]2O[C@H](CO)[C@@H](O)[C@H](O)[C@H]2O[C@H]2C[C@](C)(N)[C@H](O)[C@H](C)O2)Oc2ccc(cc2Cl)[C@H]1O [Vancomycin, reference compound]
- reduction of bacterial counts (S. aureus strain 29213; 2× the MIC): 2.5 log10
- reduction of bacterial counts (killing) (S. aureus strain 29213; 4× the MIC): 2.5 log10
